Measured values as given in patent US9346761B2, “Arginine methyltransferase inhibitors and uses thereof” (Epizyme, Inc., priority 2013, dated 2016).

biological target: T1, Full-length human PRMT3 (Homo sapiens, UniProt O60678); experiment: PRMT3 biochemical assay (3H-SAM Flashplate, peptide substrate)
T1 construct: GST-tagged PRMT3; made in house; host or cells: E. coli BL21(DE3) Gold (pGEX-KG)
Text: General Materials. S-adenosylmethionine (SAM), S-adenosylhomocysteine (SAH), bicine, Tween20, dimethylsulfoxide (DMSO), bovine skin gelatin (BSG),), isopropyl-β-D-thiogalactopyranoside (IPTG), and Tris(2-carboxyethyl)phosphine hydrochloride solution (TCEP) were purchased from Sigma-Aldrich at the highest level of purity possible. ^3H-SAM was purchase from American Radiolabeled Chemicals with a specific activity of 80 Ci/mmol. 384-well streptavidin Flashplates were purchased from PerkinElmer.
Substrates. Peptide containing the classic RMT substrate motif was synthesized with an N-terminal linker-affinity tag motif and a C-terminal amide cap by 21st Century Biochemicals. The peptide was purified by high-performance liquid chromatography (HPLC) to greater than 95% purity and confirmed by liquid chromatography mass spectrometry (LC-MS). The sequence was Biot-Ahx-[…]-amide (SEQ ID NO.:11).
Molecular Biology: : Full-length human PRMT3 (NM_005788.3) isoform 1 transcript clone was amplified from an HEK 293 cDNA library and subcloned into pGEX-KG (GE Life Sciences). The resulting construct encodes an N-terminal GST tag and a thrombin cleavage sequence ([…] […] […] […]) (SEQ ID NO.:12) fused directly to Cys 2 of PRMT3.
Protein Expression. E. coli (BL21(DE3) Gold, Stratagene) made competent by the CaCl2 method were transformed with the PRMT3 construct and ampicillin selection. Protein over-expression was accomplished by growing the PRMT3 expressing E. coli clone and inducing expression with 0.3 mM IPTG at 16° C. The culture was grown for 12 hours, harvested by centrifugation, and stored at −80° C. for purification.
Protein Purification. […] GST-tagged PRMT3 eluted with 25-400 mM phosphate in buffer C. Protein was concentrated and buffer was exchanged to 20 mM Tris, 150 mM NaCl, 5% glycerol, 5 mM β-mercaptoethanol, pH7.8 by ultrafiltration. The purity of recovered protein was 70%.
General Procedure for PRMT3 Enzyme Assays on Peptide Substrates. The assays were all performed in a buffer consisting of 20 mM Bicine (pH=7.6), 1 mM TCEP, 0.005% BSG, and 0.002% Tween 20, prepared on the day of use. Compounds in 100% DMSO (1 ul) were spotted into a polypropylene 384-well V-bottom plates (Greiner) using a Platemate Plus outfitted with a 384-channel head (Thermo Scientific). DMSO (1 ul) was added to Columns 11, 12, 23, 24, rows A-H for the maximum signal control and 1 ul of SAH, a known product and inhibitor of PRMT3, was added to columns 11, 12, 23, 24, rows I-P for the minimum signal control. A cocktail (40 ul) containing the PRMT3 enzyme was added by Multidrop Combi (Thermo-Fisher). The compounds were allowed to incubate with PRMT3 for 30 min at room temperature, then a cocktail (10 ul) containing SAM and peptide was added to initiate the reaction (final volume=51 ul). The final concentrations of the components were as follows: PRMT3 was 0.5 nM, ^3H-SAM was 100 nM, non-radiolabeled SAM was 1.8 uM, peptide was 330 nM, SAH in the minimum signal control wells was 1 mM, and the DMSO concentration was 2%. The assays were stopped by the addition of potassium chloride (10 ul) to a final concentration of 100 mM. 50 ul of the reaction in the 384-well polypropylene plate was then transferred to a 384-well Flashplate and the biotinylated peptides were allowed to bind to the streptavidin surface for at least 1 hour before being washed once with 0.1% Tween20 in a Biotek ELx405 plate washer. The plates were then read in a PerkinElmer TopCount plate reader to measure the quantity of ^3H-labeled peptide bound to the Flashplate surface, measured as disintegrations per minute (dpm) or alternatively, referred to as counts per minute (cpm).
Where dpm=disintegrations per minute, cmpd=signal in assay well, and min and max are the respective minimum and maximum signal controls.
Where top and bottom are the normally allowed to float, but may be fixed at 100 or 0 respectively in a 3-parameter fit. […]

T1 sequence (O60678 with tags, fused parts or gaps): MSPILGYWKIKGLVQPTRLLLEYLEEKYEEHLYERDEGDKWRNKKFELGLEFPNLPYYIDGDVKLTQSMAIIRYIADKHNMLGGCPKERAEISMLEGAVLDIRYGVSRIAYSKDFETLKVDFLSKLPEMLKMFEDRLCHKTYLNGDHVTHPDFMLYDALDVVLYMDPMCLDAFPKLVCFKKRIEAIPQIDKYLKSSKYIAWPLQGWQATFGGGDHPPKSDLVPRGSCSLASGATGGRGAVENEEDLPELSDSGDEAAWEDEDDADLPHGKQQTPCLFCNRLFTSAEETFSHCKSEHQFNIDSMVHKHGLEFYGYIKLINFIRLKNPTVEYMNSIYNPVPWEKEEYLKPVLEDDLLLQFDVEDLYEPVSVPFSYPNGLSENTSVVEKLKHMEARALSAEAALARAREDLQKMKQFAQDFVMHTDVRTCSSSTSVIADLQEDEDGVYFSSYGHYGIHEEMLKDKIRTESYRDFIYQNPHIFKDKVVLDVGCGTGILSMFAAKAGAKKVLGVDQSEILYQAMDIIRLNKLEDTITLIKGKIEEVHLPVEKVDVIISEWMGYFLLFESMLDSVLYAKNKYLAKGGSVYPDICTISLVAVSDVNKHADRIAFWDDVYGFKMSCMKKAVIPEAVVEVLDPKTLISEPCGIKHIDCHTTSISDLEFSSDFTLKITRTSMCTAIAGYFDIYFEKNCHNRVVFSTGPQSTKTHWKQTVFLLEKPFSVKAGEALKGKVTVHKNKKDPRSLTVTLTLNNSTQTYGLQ

SMILES | IC50
COc1ccc(Cl)cc1-c1n[nH]cc1CN(C)CCN [Compound 157] | > 10 µM
Cc1cccc(-c2n[nH]cc2CN(C)CCN)c1 [Compound 131] | 3.01 to 10 µM
CN(CCN)Cc1c[nH]nc1-c1cc(F)cc(F)c1 [Compound 111] | 3.01 to 10 µM
CCNC(=O)c1ccc(-c2n[nH]cc2CN(C)CCN)cc1 [Compound 136] | > 10 µM
Cc1ccc(F)cc1-c1n[nH]cc1CN(C)CCN [Compound 159] | > 10 µM
COc1ccc(-c2n[nH]cc2CN(C)CCN)cc1 [Compound 153] | 3.01 to 10 µM
COCCOc1ccc(-c2n[nH]cc2CN(C)CCN)cc1 [Compound 167] | 3.01 to 10 µM
CN(CCN)Cc1c[nH]nc1-c1ccc(C(F)(F)F)c(Cl)c1 [Compound 117] | 1.01 to 3 µM
Cc1cc(Cl)ccc1-c1n[nH]cc1CN(C)CCN [Compound 133] | 3.01 to 10 µM
CN(CCN)Cc1c[nH]nc1-c1cc(Cl)ccc1F [Compound 156] | > 10 µM
CC(=O)c1cccc(-c2n[nH]cc2CN(C)CCN)c1 [Compound 112] | 3.01 to 10 µM
COc1cc(Cl)cc(-c2n[nH]cc2CN(C)CCN)c1 [Compound 127] | 3.01 to 10 µM
CN(CCN)Cc1c[nH]nc1-c1ccc(C(F)(F)F)cc1F [Compound 148] | > 10 µM
COc1ccc(F)cc1-c1n[nH]cc1CN(C)CCN [Compound 160] | > 10 µM
Cc1cc(C#N)ccc1-c1n[nH]cc1CN(C)CCN [Compound 110] | 3.01 to 10 µM
CCn1ncc(CN(C)CCNC)c1-c1ccc(F)cc1 [Compound 7] | > 10 µM
COCCn1cc(CN(C)CCN)c(-c2ccc(F)cc2)n1 [Compound 5] | > 10 µM
CN(CCN)Cc1c[nH]nc1-c1ccc(C2CCOCC2)cc1 [Compound 98] | 0.101 to 1 µM
COc1ccc(-c2n[nH]cc2CN(C)CCN)cc1F [Compound 134] | 3.01 to 10 µM
CN(CCN)Cc1c[nH]nc1-c1cccc(Cl)c1F [Compound 123] | 3.01 to 10 µM
CN(CCN)Cc1c[nH]nc1-c1cc(C#N)ccc1Cl [Compound 147] | > 10 µM
Cc1[nH]nc(-c2ccc(F)cc2)c1CN(C)CCN [Compound 169] | > 10 µM
CC(C)Oc1ccc(-c2c[nH]nc2CN(C)CCN)cc1F [Compound 144] | > 10 µM
CC(C)c1ccc(-c2c[nH]nc2CN(C)CCN)cc1 [Compound 101] | > 10 µM
CN(CCN)Cc1c[nH]nc1-c1ccc(C2CC2)cc1 [Compound 116] | 1.01 to 3 µM

SMILES | IC50
CN(CCN)Cc1c[nH]nc1-c1cc(F)ccc1Cl [Compound 106] | > 10 µM
CCN(CC)C(=O)c1ccc(-c2n[nH]cc2CN(C)CCN)cc1 [Compound 143] | 3.01 to 10 µM
CN(CCN)Cc1c[nH]nc1-c1ccc(OCCN2CCOCC2)cc1 [Compound 172] | 3.01 to 10 µM
Cc1ccc(-c2n[nH]cc2CN(C)CCN)cc1Cl [Compound 126] | 1.01 to 3 µM
CN(CCN)Cc1c[nH]nc1-c1cccc(N(C)C)c1 [Compound 149] | 3.01 to 10 µM
CN(CCN)Cc1c[nH]nc1-c1ccccc1C#N [Compound 140] | 3.01 to 10 µM
CC(O)c1ccc(-c2n[nH]cc2CN(C)CCN)cc1 (stereo not drawn) [Compound 115] | 3.01 to 10 µM
CN(CCN)Cc1c[nH]nc1-c1ccc(C(F)(F)F)cc1Cl [Compound 135] | > 10 µM
CN(CCN)Cc1c[nH]nc1-c1ccc(OC2CC2)cc1 [Compound 114] | 3.01 to 10 µM
Cc1ccc(-c2n[nH]cc2CN(C)CCN)cc1 [Compound 162] | 3.01 to 10 µM
COCCn1ncc(CN(C)CCN)c1-c1ccc(F)cc1 [Compound 6] | > 10 µM
CCOC(=O)c1cccc(-c2n[nH]cc2CN(C)CCN)c1 [Compound 150] | > 10 µM
CN(CCN)Cc1n[nH]cc1-c1ccc(Cl)cc1 [Compound 102] | 3.01 to 10 µM
COc1ccc(-c2n[nH]cc2CN(C)CCN)cc1Cl [Compound 125] | 3.01 to 10 µM
Cc1c(F)cccc1-c1n[nH]cc1CN(C)CCN [Compound 129] | 3.01 to 10 µM
CN(CCN)Cc1n[nH]cc1-c1ccc(OC2CC2)cc1 [Compound 119] | 3.01 to 10 µM
COc1cccc(-c2n[nH]cc2CN(C)CCN)c1 [Compound 130] | 3.01 to 10 µM
CN(CCN)Cc1n[nH]cc1-c1ccc(C2CC2)cc1 [Compound 104] | > 10 µM
CN(CCN)Cc1n[nH]cc1-c1ccc(OC(F)F)cc1 [Compound 138] | > 10 µM
COc1ccc(-c2n[nH]cc2CN(C)CCN)c(F)c1 [Compound 107] | 3.01 to 10 µM
CN(CCN)Cc1c[nH]nc1-c1ccc(Cl)cc1 [Compound 95] | 1.01 to 3 µM
Cc1ccc(C#N)cc1-c1n[nH]cc1CN(C)CCN [Compound 158] | > 10 µM
CCOc1ccc(-c2n[nH]cc2CN(C)CCN)cc1 [Compound 166] | 3.01 to 10 µM
Cc1cc(F)ccc1-c1n[nH]cc1CN(C)CCN [Compound 152] | 3.01 to 10 µM
COc1cc(-c2n[nH]cc2CN(C)CCN)ccc1F [Compound 142] | 3.01 to 10 µM

SMILES | IC50
CN(CCN)Cc1c[nH]nc1-c1ccc(C(F)(F)F)c(F)c1 [Compound 141] | 3.01 to 10 µM
CN(CCN)Cc1n[nH]cc1-c1ccc(C(F)(F)F)cc1 [Compound 103] | > 10 µM
CN(CCN)Cc1n[nH]cc1-c1ccc(OC(F)(F)F)cc1 [Compound 105] | 3.01 to 10 µM
COc1cc(F)ccc1-c1n[nH]cc1CN(C)CCN [Compound 151] | > 10 µM
CN(CCN)Cc1n[nH]cc1-c1ccc(C2CCOCC2)cc1 [Compound 145] | 3.01 to 10 µM
Cc1ccccc1-c1n[nH]cc1CN(C)CCN [Compound 161] | > 10 µM
COc1ccc(-c2n[nH]cc2CN(C)CCN)c(Cl)c1 [Compound 146] | 3.01 to 10 µM
CN(CCN)Cc1c[nH]nc1-c1ccc(Cl)cc1F [Compound 132] | 3.01 to 10 µM
CCn1cc(CN(C)CCNC)c(-c2ccc(F)cc2)n1 [Compound 8] | > 10 µM
COc1ccccc1-c1n[nH]cc1CN(C)CCN [Compound 109] | > 10 µM
CN(CCN)Cc1cnn(CC(O)CO)c1-c1ccc(F)cc1 (stereo not drawn) [Compound 113] | > 10 µM
NCCN(CCO)Cc1c[nH]nc1-c1ccc(F)cc1 [Compound 171] | > 10 µM
CCN(C)C(=O)c1ccc(-c2n[nH]cc2CN(C)CCN)cc1 [Compound 163] | > 10 µM
CN(CCN)Cc1c[nH]nc1-c1cc(Cl)cc(Cl)c1 [Compound 137] | 3.01 to 10 µM
COc1ccc(-c2n[nH]cc2CN(C)CCN)c(C(F)(F)F)c1 [Compound 154] | > 10 µM
CN(CCN)Cc1c[nH]nc1-c1cccc(Cl)c1 [Compound 122] | 3.01 to 10 µM
CC(C)Oc1ccc(-c2n[nH]cc2CN(C)CCN)cc1F [Compound 97] | 3.01 to 10 µM
CN(CCN)Cc1cn(CC2CCOCC2)nc1-c1ccc(F)cc1 [Compound 128] | > 10 µM
CN(CCN)Cc1c[nH]nc1-c1cc(F)cc(Cl)c1 [Compound 121] | 1.01 to 3 µM
Cc1ccc(-c2n[nH]cc2CN(C)CCN)c(F)c1 [Compound 108] | 3.01 to 10 µM
CN(CCN)Cc1c[nH]nc1-c1ccc(OCC(F)(F)F)cc1 [Compound 96] | 3.01 to 10 µM
CN(CCN1CCCC1)Cc1c[nH]nc1-c1ccc(C#N)cc1 [Compound 139] | > 10 µM
CN(CCN)Cc1n[nH]cc1-c1ccc(C#N)cc1 [Compound 100] | 3.01 to 10 µM
COc1ccc(-c2n[nH]cc2CN(C)CCN)c(C)c1 [Compound 155] | 3.01 to 10 µM
CN(CCN)Cc1c[nH]nc1-c1ccc(F)cc1F [Compound 99] | > 10 µM
